Test results as given in patent publication US11040052B2, “Methods and pharmaceutical compositions for modulating autophagy in a subject in need thereof” (INSERM (INSTITUT NATIONAL DE LA SANTE ET DE LA RECHERCHE …, priority 2013, dated 2021).
“Also recorded” adds a separate entry of the source.

What was measured:
AcCoA levels = assay: Targeted analysis of AcCoA levels in cultured cells (HPLC-MS); type: cell-based, human; conditions: for cytosolic AcCoA levels: cytosolic fraction; for AcCoA levels in starved cells: nutrient-depleted (starved) cells in vitro; for AcCoA levels: cells kept in rich medium
Description: Cells were trypsinized, pelleted at 1000 rpm for 4 min, washed with PBS and pelleted again at 1000 rpm for 4 min. Cells were then resuspended in 5 ml of ice-cold hyposmotic buffer and keep on ice for 5 min. Cells were broken to release nuclei using a pre-chilled Dounce homogenizer (20 strokes with a tight pestle) and then were then centrifuged at 228 g.
For in vitro experiments, cell pellets were resuspended in 300 μL of water with HEPES and EDTA (pH 7.4) at 1 mM containing internal standard acetylcoenzyme A (2-C13) at 1 mg/L, vortexed and heated at 100° C. for 1 min. Samples were incubated in liquid nitrogen for 1 min and thawed at room temperature two times. They were let for 1 h at −20° C. and centrifuged at 4° C. during 15 min at 13,000 g. Supernatants were transferred in HPLC vials and injected in HPLC/MS or kept at −80° C. until injection. For in vivo experiments, frozen tissues were placed in ice-cold homogenization tubes containing ceramic beads. Five μL of ice-cold methanol/water (80/20; v/v) were added for 1 mg of tissue. Tissues were homogenized two times for 20 s at 5,500 rpm using Precellys 24 tissue homogenator (Bertin Technologies, Montigny-le-Bretonneux, France). Samples were placed 10 min on ice. Next they were centrifuged at 4° C. during 15 min at 13,000 g. Supernatants were transferred in HPLC vials and injected in HPLC-MS system or kept at −80° C. until injection.
Targeted analyses were performed on Rapid Resolution Liquid Chromatography (RRLC) 1200SL system (Agilent Technologies, Waldbronn, Germany) coupled to a Triple Quadruple QQQ 6410 mass spectrometer (Agilent Technologies). RRLC analysis was done on 150×2.1 mm, 3.5 μm Eclipse Plus SB-Aq column with a pre-column 30 mm×2.1 mm 3.5 μm Eclipse plus (Agilent Technologies) with water containing 10 mmol/L of ammonium acetate and 0.01% of acetic acid in channel A and acetonitrile in channel B in gradient mode at a flow rate of 0.3 mL·min^−1: t=0 min 2% B; t=9 min 95% B; t=11 min 95% B; re-equilibration time of 3 min. Mass spectrometer analysis was done in positive electrospray ionization mode at +4 kV on the QQQ system operating in MRM mode. MRM transitions were optimized with standard of AcCoA and AcCoA A 2-C^13 with direct infusion. Two transitions were recorded for each compound; • AcCoA 810>303 CE (collision energy) 28V; fragmentor 180V • 810>428 CE 20V • AcCoA 2-C13 812>305 CE 28V; fragmentor 180V • 812>428 CE 24V […]

[1] = test system: U2OS cells stably expressing GFP-LC3; assay: Autophagy in cultured cells: GFP-LC3 puncta formation and LC3 lipidation with or without bafilomycin A1; type: cell-based, human; conditions: for starvation-induced autophagy (GFP-LC3 puncta, LC3 lipidation, autophagic flux): nutrient-depleted (starved) cells in vitro; for autophagic flux (GFP-LC3 puncta formation, LC3 lipidation): cells kept in rich medium, presence and absence of BafA1; for abolition of the effects of AcCoA-replenishing agents on starvation-induced protein deacetylation and autophagy: starved cells plus DCA, DMKG or KIC
Description: U2OS, HeLa or H4 cells stably expressing GFP-LC3 were seeded in 96-well imaging plates (BD Falcon, Sparks, USA) 24 h before stimulation. Cells were treated with the indicated agents for 4 h. […] Images were analyzed for the presence of GFP-LC3 puncta in the cytoplasm by means of the BD Attovision software (BD Imaging Systems). Cell surfaces were segmented and divided into cytoplasmic and nuclear regions according to manufacturer standard proceedings. RB 2×2 and Marr-Hildreth algorithms were used to recognize cytoplasmic GFP-LC3 positive dots. Statistical analyses were implemented on the R software (http://www.r-project.org/). For quantitative analyses of protein acetylation, cell surfaces were segmented into cytoplasm and nuclei regions, and staining intensity of each individual cell was measured for statistical analysis.
Membranes were then sliced in different parts according to the molecular weight of the protein of interest to allow simultaneous detection of different antigens within the same experiment. Unspecific binding sites were saturated by incubating membranes for 1 h in 0.05% Tween 20 (v:v in TBS) supplemented with 5% non-fat powdered milk (w:v in TBS), followed by the overnight incubation with primary antibodies specific for acetylated-lysine, LC3, phospho-AMPK (Thr172), AMPK, phospho-ribosomal protein S6 kinase (Thr421/Ser424), ribosomal protein S6 kinase, or STQM/p62 (Santa Cruz Biotechnology). Development was performed with appropriate horseradish peroxidase (HRP)-labeled secondary antibodies (Southern Biotech, Birmingham, USA) plus the SuperSignal West Pico chemoluminescent substrate (Thermo Scientific-Pierce). An anti-glyceraldehyde-3-phosphate dehydrogenase antibody (Chemicon International, Temecula, USA) was used to control equal loading of lanes.
For immunoblotting, protein extracts obtained by cellular lysis via RIPA buffer were run on 4-12% Bis-Tris acrylamide (Invitrogen) and electrotransferred to […] PVDF membranes (Biorad, USA). Unspecific binding sites were saturated by incubating membranes for 1 h in 0.05% Tween 20 (v:v in TBS) supplemented with 5% non-fat powdered milk (w:v in TBS), followed by an overnight incubation with primary antibodies specific for, LC3, phospho-AMPK (Thr172), AMPK, phosphor-ACC (Ser79), ACC, phospho-ribosomal protein S6 kinase (Thr421/Ser424), ribosomal protein S6 kinase, or SQSTM/p62 (Abnova). Membranes were opportunely cut in order to allow simultaneous detection of different molecular weight proteins. Development was performed with horseradish peroxidase (HRP)-labeled secondary antibodies (Southern Biotech, Birmingham, USA) plus the SuperSignal West Pico chemo luminescent substrate (Thermo Scientific-Pierce). An anti-glyceraldehyde-3-phosphate dehydrogenase antibody (Abcam) and anti-Actin antibody (Abcam) were used to ensure equal loading of lanes. Quantification was performed by densitometry by means of Image J software.
U2OS and H4 cells stably expressing GFP-LC3 were seeded in 96-well or 384-well imaging plates (BD Falcon, Sparks, USA). 24 h before stimulation, ells were treated with the indicated agents for 6 hours in absence of lysososomal ATPase inhibitors and for 3 hours in presence of Bafilomycin A1. […] Images were analyzed for the detection of GFP-LC3 puncta in the cytoplasm by means of the BD Attovision software (BD Imaging Systems. Cellular regions of interest, cytoplasm and nucleus, were defined and segmented according to standard proceedings. RB 2×2 and Marr-Hildreth algorithms were employed to allow the detection of GFP LC3 puncta. Statistical analyses were conducted using the R and Prism softwares (http://www.r-project.org/). For quantitative analyses of protein acetylation, cell surfaces were segmented intocytoplasmic and nucleic regions, and staining intensity of each individual cell was measured for statistical analysis.

SMILES | cytosolic AcCoA levels (AcCoA levels) | AcCoA levels in starved cells (AcCoA levels) | starvation-induced autophagy (GFP-LC3 puncta, LC3 lipidation, autophagic flux) [1] | AcCoA levels (AcCoA levels) | autophagic flux (GFP-LC3 puncta formation, LC3 lipidation) [1] | abolition of the effects of AcCoA-replenishing agents on starvation-induced protein deacetylation and autophagy [1]
COC(=O)CCC(=O)C(=O)OC [DMKG, dimethyl-α-ketoglutarate] | also raised the cytosolic concentration of AcCoA | increased cellular AcCoA levels; also recorded: maintained high AcCoA | abolished starvation-induced autophagy; also recorded: low autophagy | – | – | –
N#CC(=Cc1cn(-c2ccccc2)c2ccccc12)C(=O)O [UK5099, 2-Cyano-3-(1-phenyl-1H-indol-3-yl)-2-propenoic acid] | also raised the cytosolic concentration of AcCoA | – | – | reduced both AcCoA levels; also recorded: depletion of intracellular AcCoA | increased autophagic flux; also recorded: induction of GFP-LC3 puncta and lipidation of endogenous LC3-I to LC3-II; also recorded: induction of GFP-LC3 puncta, and lipidation of endogenous LC3-I to LC3-II | –
O=C(O)c1cccc(C(=O)O)c1C(=O)O [BTC, 1,2,3-benzenetricarboxylate] | induced the triad of AcCoA depletion | – | – | reduced both AcCoA levels | increased autophagic flux; also recorded: induced the triad | cancelled the inhibitory effects; also recorded: abolished both the protein hyperacetylation and autophagy suppression
O=C(O)CCCCC1CCSS1 (stereo not drawn) [LA, lipoic acid] | also raised the cytosolic concentration of AcCoA | increased both cellular AcCoA levels; also recorded: maintain high AcCoA | abolished starvation-induced autophagy; also recorded: blunted starvation-induced mTORC1 inhibition, AMPK activation and autophagy flux | – | – | –
CC(C)CC(=O)C(=O)O [KIC, ketoisocaproic acid] | also raised the cytosolic concentration of AcCoA | increase in AcCoA levels; also recorded: sufficient to avoid AcCoA depletion | inhibition of starvation induced autophagy; also recorded: inhibited the starvation-induced increase in autophagic flux; also recorded: more efficient than leucine in suppressing autophagy | – | – | –
CC(C)C[C@H](N)C(=O)O [leucine] | – | sufficient to maintain high AcCoA levels | suppression of autophagy | – | – | –
CC1=NN(c2ccc(C(=O)O)cc2)C(=O)/C1=C\c1ccc(-c2cc(C)c(C)cc2[N+](=O)[O-])o1 [c646] | – | – | – | – | induced autophagy both in vitro, in cultured cells, and in vivo, in mice | precluded the inhibitory effect of AcCoA-replenishing agents on starvation-induced autophagy
O=C(O)CC(O)(C(=O)O)C(O)C(=O)O (stereo not drawn) [HC, hydroxycitrate] | reduced cytoplasmic AcCoA levels | – | – | reduced both AcCoA levels | increased autophagic flux; also recorded: induce autophagic flux; also recorded: strongly stimulated autophagy both in vitro and in vivo; also recorded: stimulated autophagic flux in cultured cancer cells | cancelled the inhibitory effects; also recorded: abolished both the protein hyperacetylation and autophagy suppression
